Reference: patent US20250179057A1, “MEK IMMUNE ONCOLOGY INHIBITORS AND THERAPEUTIC USES THEREOF” (Immuneering Corporation, priority 2022, published 2025)
Converted amounts (≈) assume the structure as drawn.

Tests used:
[1] = system: phospho-ERK in A549 (KRAS G12S) cells; test: Cell-based pERK (pERK:tERK) in A549 cells; conditions: for activity at 0.01 µM: Homo sapiens, A549, 2 h, read-out: A549-pERK (10 nM, 2 h); for pERK:tERK (10 nM 2 h A549): Phospho-ERK Screen in A549 (KRAS G12S), head 10 nM 2 h, title 10 μM for 2 hours
How it was run: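 Readout was pERK versus tERK by Western blot with IRDye-labelled secondary antibodies, imaged and quantified on a LI-COR Odyssey. Lysates were loaded at 1 mg/mL protein after Bradford estimation.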

[2] = Kinetic solubility (PBS pH 7.4; 4 hr); format: physicochemical; conditions: PBS buffer, pH 7.4, aqueous buffer, kinetic from dmso stock; free base (Table 19); read-out: Kinetic Solubility
Method: The plates were shaken for 4 h at room temperature in an Eppendorf Thermomixer. After incubation, the plates were centrifuged for 20 minutes at 4680 rpm. From the supernatant, 150 μL was transferred to a new 96 well plate and 50 μL DMSO was added to ensure continued dissolution. Samples were measured on LC-UV at injection volumes of 1 and 8 μL. Peak areas were determined and compared to peak areas obtained using calibration curves of the test compounds in DMSO.

[3] = PAMPA (pH 7.4); format: in vitro ADME; conditions: PAMPA; pH = 7.4 (Table 14)
[4] = Mouse pharmacokinetics (oral cassette dosing), plasma; format: in vivo; conditions: female, mouse, BALB/c immunocompetent mice, 5 mg/kg p.o.; for AUC(0-t): read-out: AUC0-t; for Cmax: read-out: Cmax; for Tmax: read-out: Tmax
Method: Female mice (BALC/c) received a single dose (3 mice/treatment) of vehicle (10% 1N HCl:90% [20% […]) and at 0.5, 1, 2, 4, 8, 12 and 24-hour post dose humanely euthanized.
Blood was obtained through cardiac puncture into K+EDTA tubes, mixed by inversion and centrifuged to obtain the plasma. Blood will be kept on ice or at approximately 4° C. prior. Centrifugation will take place within 30 minutes of blood collection affording plasma samples. Plasma samples will be frozen as soon as possible after centrifugation and stored at −80° C. until analysis. All samples will be analysed by means of LC-MS/MS. Method development for bioanalysis will be performed by pharmacokinetics Department of Crown Bioscience (Taicang) Inc. using LC-MS/MS analysis (using Waters HSS T3 2.1×50 mm (1.8 um) LC column, and an API-4000 Electrospray MS unit). The results of a kinetic solubility (free base) study are represented in Table 19.

[5] = target: hERG (Homo sapiens, UniProt Q12809); test: cell-based
Chain of hERG (Q12809 whole entry): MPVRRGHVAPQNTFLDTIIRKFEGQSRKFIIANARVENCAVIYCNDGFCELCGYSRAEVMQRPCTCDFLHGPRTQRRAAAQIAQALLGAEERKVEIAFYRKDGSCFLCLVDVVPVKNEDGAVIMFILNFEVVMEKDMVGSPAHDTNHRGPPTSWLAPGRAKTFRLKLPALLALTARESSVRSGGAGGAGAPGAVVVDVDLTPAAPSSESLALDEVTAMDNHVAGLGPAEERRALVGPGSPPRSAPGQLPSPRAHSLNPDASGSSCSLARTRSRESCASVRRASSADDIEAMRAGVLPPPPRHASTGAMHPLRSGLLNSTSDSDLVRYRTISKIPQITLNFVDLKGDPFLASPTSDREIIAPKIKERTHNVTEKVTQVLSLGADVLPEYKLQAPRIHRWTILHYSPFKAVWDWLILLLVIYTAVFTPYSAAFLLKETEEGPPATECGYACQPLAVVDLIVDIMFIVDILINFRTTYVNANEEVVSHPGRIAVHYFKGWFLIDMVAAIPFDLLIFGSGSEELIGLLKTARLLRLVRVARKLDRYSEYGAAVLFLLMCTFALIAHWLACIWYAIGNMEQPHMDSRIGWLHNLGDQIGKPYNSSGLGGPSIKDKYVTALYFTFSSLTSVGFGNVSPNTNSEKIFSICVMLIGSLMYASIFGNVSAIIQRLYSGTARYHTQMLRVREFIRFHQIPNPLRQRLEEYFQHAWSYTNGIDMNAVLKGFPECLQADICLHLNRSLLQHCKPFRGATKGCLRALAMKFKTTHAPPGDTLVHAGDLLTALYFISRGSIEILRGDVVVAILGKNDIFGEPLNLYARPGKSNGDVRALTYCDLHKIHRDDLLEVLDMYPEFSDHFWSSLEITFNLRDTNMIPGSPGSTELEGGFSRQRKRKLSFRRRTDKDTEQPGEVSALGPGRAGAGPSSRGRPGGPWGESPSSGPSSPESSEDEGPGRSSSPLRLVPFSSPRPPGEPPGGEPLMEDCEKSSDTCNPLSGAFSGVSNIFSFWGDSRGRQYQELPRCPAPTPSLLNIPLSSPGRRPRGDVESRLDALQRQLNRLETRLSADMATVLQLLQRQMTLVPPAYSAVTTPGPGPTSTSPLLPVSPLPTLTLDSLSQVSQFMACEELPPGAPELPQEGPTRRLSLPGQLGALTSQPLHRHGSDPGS
Method: Materials and Methods: CHO cells (transformed with adenovirus 5 DNA; Stably transfected with full length hERG cDNA) were cultured in Ham's F-12 supplemented with 10% fetal bovine serum, 100 U/mL penicillin G sodium, 100 μg/mL streptomycin sulfate and 400 μg/mL Zeocin. Before testing, cells in culture dishes were rinsed with Hank's Balanced Salt Solution, detached with accutase.
HEPES-buffered intracellular solution (Charles River proprietary) for whole cell recordings was loaded into the intracellular compartment of the SP384PE. Extracellular buffer (HB-PS) and Cell suspension (in HB-PS) were pipetted into the extracellular compartment of the SP384PE chip. After establishment of a whole-cell configuration, membrane currents were recorded using patch clamp amplifier in the SP384PE system.
Test article (TA) concentrations (eight (8) concentrations of each test article were evaluated) were applied to naïve cells (n=4, where n=replicates/concentration). Each application consisted of addition of 40 μL of 2× concentrated test article solution to the total 80 μL of final volume of the extracellular well of the SP384PE chip. Duration of exposure to each compound concentration was five (5) minutes.
hERG current was measured using stimulus voltage patterns with fixed amplitudes: activation pre-pulse (TP1) to +40 mV for 2 s and test pulse (TP2) to −40 mV for 2 s from a holding potential of −80 mV. hERG current was measured as the outward peak current at TP2 (tail current). The stimulation was repeated with 0.1 Hz frequency during 2 min as baseline and 5 min after TA application.
Data acquisition and analyses were performed using the SP384PE system operation software. The decrease in current amplitude after TA application was used to calculate the percent block relative to control.
Tonic Block effect was calculated as:
[formula] • where ITP2, baseline and ITP2, TA were the outward peak K^+ currents elicited by the TP2 before application and 5 min after application of a test article, respectively.
The data were corrected for run-down:
[formula] • where % VC and % PC were the mean values of the current block with the vehicle and positive controls, respectively.
Concentration-response data were fitted to an equation of the following form:
[formula] • where [Test] was the concentration of test article, IC50 was the concentration of the test article producing half-maximal block, N was the Hill coefficient, % VC was the mean current block at the vehicle control and % Block was the percentage of ion channel current inhibited at each concentration of a test article. Nonlinear least squares fits were solved with the XLfit add-in for Excel (Microsoft, Redmond, WA).
In this study, hERG Ion channel block of IC50 values were determined. […] In brief, CHO cells were cultured in Ham's F-12 supplemented with 10% fetal bovine serum, 100 U/mL penicillin G sodium, 100 μg/mL streptomycin sulfate and 400 μg/mL Zeocin. Before testing, cells in culture dishes were rinsed with Hank's Balanced Salt Solution, detached with accutase. […] Test article (TA) concentrations were applied to naïve cells (n=4, where n=replicates/concentration). Each application consisted of addition of 40 μL of 2× concentrated test article solution to the total 80 μL of final volume of the extracellular well of the SP384PE chip. Duration of exposure to each compound concentration was five (5) minutes. hERG current was measured using stimulus voltage patterns with fixed amplitudes: activation pre-pulse (TP1) to +40 mV for 2 s and test pulse (TP2) to −40 mV for 2 s from a holding potential of −80 mV. hERG current was measured as the outward peak current at TP2 (tail current). The stimulation was repeated with 0.1 Hz frequency during 2 min as baseline and 5 min after TA application. Data acquisition and analyses were performed using the SP384PE system operation software.

[6] = target: CYP2D6 (Homo sapiens, UniProt P10635); test: CYP450 panel inhibition in human liver microsomes, 2D6 (dextromethorphan); conditions: control dose 1 μM, substrate dextromethorphan
Chain of CYP2D6 (P10635 whole entry): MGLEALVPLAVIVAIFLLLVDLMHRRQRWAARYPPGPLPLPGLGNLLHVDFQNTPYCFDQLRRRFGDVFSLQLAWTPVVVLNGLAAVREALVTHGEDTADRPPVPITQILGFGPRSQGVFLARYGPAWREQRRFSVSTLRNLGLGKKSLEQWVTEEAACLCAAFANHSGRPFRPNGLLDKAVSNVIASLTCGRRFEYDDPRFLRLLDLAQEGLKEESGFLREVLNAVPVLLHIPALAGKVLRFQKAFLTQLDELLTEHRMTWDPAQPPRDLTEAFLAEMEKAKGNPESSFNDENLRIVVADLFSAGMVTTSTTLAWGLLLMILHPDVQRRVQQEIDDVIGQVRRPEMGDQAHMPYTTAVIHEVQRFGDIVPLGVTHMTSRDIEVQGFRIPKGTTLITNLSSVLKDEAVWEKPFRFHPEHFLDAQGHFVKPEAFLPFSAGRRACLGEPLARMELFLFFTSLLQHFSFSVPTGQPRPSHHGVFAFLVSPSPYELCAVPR

[7] = target: CYP2C9 (Homo sapiens, UniProt P11712); test: CYP450 panel inhibition in human liver microsomes, 2C9 (diclofenac)
Chain of CYP2C9 (P11712 whole entry): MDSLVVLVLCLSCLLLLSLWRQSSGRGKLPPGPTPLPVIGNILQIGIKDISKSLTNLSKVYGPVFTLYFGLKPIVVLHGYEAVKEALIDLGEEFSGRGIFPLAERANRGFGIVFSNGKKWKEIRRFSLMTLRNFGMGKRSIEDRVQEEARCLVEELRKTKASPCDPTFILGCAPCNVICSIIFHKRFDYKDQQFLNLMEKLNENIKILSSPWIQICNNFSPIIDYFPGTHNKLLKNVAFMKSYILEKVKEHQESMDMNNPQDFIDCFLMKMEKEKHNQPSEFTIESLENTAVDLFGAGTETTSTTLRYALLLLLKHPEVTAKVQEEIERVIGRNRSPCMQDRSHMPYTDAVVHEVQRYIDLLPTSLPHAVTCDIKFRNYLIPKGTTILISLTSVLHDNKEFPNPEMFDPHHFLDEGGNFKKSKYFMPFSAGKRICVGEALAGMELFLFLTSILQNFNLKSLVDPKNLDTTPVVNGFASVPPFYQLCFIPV
Source text: The quenched samples were stored refrigerated.

[8] = system: phospho-MEK in A549 cells; test: Cell-based pMEK (pMEK:tMEK, CRAF bypass) in A549 cells; conditions: 2 h, normalized to DMSO control (Table 13)
Method: Materials and Methods: A549 or A375 cells were seeded in 6-well plates at an appropriate seeding density on day 0. On day 2 or 3, after checking the health and confluency of cells, the media was aspirated and replaced with 1 mL media containing a predetermined concentration of compound and incubated for 2 hours. After 2 hours, the media was aspirated, and the cells washed 2 times with cold PBS. Cells were lysed on ice, with 50 uL 1×CST lysis buffer +1 mM PMSF for 5 minutes. After 5 minutes, cells were removed using a scraper and transferred to cold 1.5 mL tubes, and centrifuged for 10 min, 4° C., 14,000×g. Supernatant was gently removed and snap frozen in liquid nitrogen. Protein concentration of the lysate was determined using Bradford Reagent (analyzed using SpectraMax M2E) and diluted to 1 mg/mL or pERK or 1.5 mg/mL for pMEK analysis. […] All dilutions were in Milk-free antibody diluent.
(§1) A549 or […] cells were treated in duplicate for two hours with compounds at varying concentrations. After two hours, the cells were lysed, snap frozen, and stored at −80° C. After storage, the lysate was quantified with the Bradford assay. Before the lysates were prepared to run on the Jess, the lysates were diluted to 1 mg/mL for pERK analysis and 1.5 mg/mL pMEK analysis using quantitative Western blotting. ERK and MEK phosphorylation levels were estimated by taking the ratio of phospho-protein to total protein and normalizing to the DMSO control.
as §1

[9] = system: Caco-2 cells
[10] = in vitro; conditions: human

With `CNS(=O)(=O)Nc1cccc(Cc2c(CN(C)C)c3ccc(OC(=O)N(C)C)cc3oc2=O)c1Br` [Compound 248] the activity at 0.01 µM [1] was 80.9%, the “pERK:tERK (10 nM 2 h A549)” value [1] was 81 and the solubility kinetic at 4 h [2] was greater than 80 µM. For the same compound, the Papp at 4 h, 50 μM [3] was 60 ×10⁻⁶ cm/s, the AUC(0-inf) [4] was 28.3 ng·h/mL and the half-life [4] was 312 min. It also gave an AUC(0-t) [4] of 19.5 ng·h/mL, a Cmax [4] of 8.3 ng/mL and a Tmax [4] of 30 min.

With `CCS(=O)(=O)Nc1cccc(Cc2c(CN3CCNCC3)c3cc(F)c(OC(=O)N(C)C)cc3oc2=O)c1Cl` [Compound 255, 3-(2-chloro-3-(ethylsulfonamido)benzyl)-6-fluoro-2-oxo-4-(piperazin-1-ylmethyl)-2H-chromen-7-yl dimethylcarbamate] the IC50 [5] was 18.1 µM, the activity at 0.01 µM [1] was 37.1% and the “pERK:tERK (10 nM 2 h A549)” value [1] was 37. The Papp at 4 h, 50 μM [3] was 5 ×10⁻⁶ cm/s.

With `C=C[C@H]1C[N@@]2CC[C@H]1C[C@@H]2[C@@H](O)c1ccnc2ccc(OC)cc12` [Quinidine, reference compound] the “CYP-2D6 (Dextromethorphan) mean percentage CYP inhibition, control” value [6] was 93.1%.

In the case of `Nc1ccc(S(=O)(=O)Nc2ccnn2-c2ccccc2)cc1` [Sulfaphenazole, reference compound], the “2C9* (Diclofenac)” value ([7]; 10 μM, human liver microsomes, percent inhibition) is reported as 101.2 and the inhibition at 30 min, 10 µM ([7]; human, microsomes, pH 7.4) is reported as 95.6%.

With `CNS(=O)(=O)Nc1cccc(Cc2c(CN(C)CCF)c3ccc(OC(=O)N(C)C)cc3oc2=O)c1F` [Compound 240] the activity at 0.01 µM [1] was 66%, the “A549-pMEK 100 nM, 2 h” value [8] was 34.2 and the solubility kinetic at 4 h [2] was 67 µM (≈ 36.1 µg/mL). For the same compound, the Papp at 4 h, 50 μM [3] was 62 ×10⁻⁶ cm/s, the AUC(0-t) [4] was 290 ng·h/mL and the Cmax [4] was 865 ng/mL. The Tmax [4] was 4.98 min.

In the case of `CNC(=C[N+](=O)[O-])NCCSCc1ccc(CN(C)C)o1` [Ranitidine], the “A − B Permeability Ranking” value [9] is reported as “Lower”, the “A-B Permeability Ranking” value [9] is reported as “Low” and the efflux ratio at 2 h, 10 μM ([10]; Caco-2, Mean (B-A/A-B) (Efflux Ratio)) is reported as 4.06. The efflux ratio at 2 h, 10 μM ([10]; Caco-2, Mean Efflux Ratio) was 2.89, the Papp A→B at 2 h, 10 μM ([10]; Caco-2, Mean Papp A − B (10^−6 cm/s)) was 0.407 ×10⁻⁶ cm/s and the Papp A→B at 2 h, 10 μM ([10]; Caco-2, Mean Papp A-B (10^-6 cm/s)) was 0.347 ×10⁻⁶ cm/s. The Papp B→A at 2 h, 10 μM ([10]; Caco-2, Mean Papp B − A (10^−6 cm/s)) was 1.18 ×10⁻⁶ cm/s and the Papp B→A at 2 h, 10 μM ([10]; Caco-2, Mean Papp B-A (10^-6 cm/s)) was 1.41 ×10⁻⁶ cm/s.

In the case of `CN(C)C(=O)Oc1cc2oc(=O)c(Cc3cccc(NS(=O)(=O)CC(F)(F)F)c3F)c(CN3CCNCC3)c2cc1F` [Compound 239], the activity at 0.01 µM [1] is reported as 96.1% and the Papp at 4 h, 50 μM [3] is reported as 0.8 ×10⁻⁶ cm/s.
